Where no end group is shown, it is not given here.
test system: AI4 CTL; experiment: 51Cr-release cytotoxicity assay, AI4 CTL against peptide-pulsed RMA-S target cells; assay type: cell-based, mouse; settings: RMA-S target cells, E:T ratio of 40, lower peptide concentrations (FIG. 6B); read-out: half-maximal activity, AI4 cytotoxic response
Protocol: Cytotoxicity assays for screening of HPLC fractions and peptide libraries. AI4 CTL were generated by culturing splenocytes from NOD.AI4αβTg mice with IFN-γ-treated NIT-1 cells and 12.5 U/ml IL-2 as described (DiLorenzo et al., 2002). NY8.3 CTL were generated by culturing splenocytes from 8.3-NOD mice with mitomycin C-treated NOD splenocytes pulsed with 10 nM NRP-A7 peptide as described (DiLorenzo et al., 2002). CTL were used in 16 h ^51Cr-release cytotoxicity assays to test for recognition of peptide-pulsed target cells at an E:T ratio of 40:1 as described (DiLorenzo et al., 2002). TAP-deficient cell lines RMA-S, RMA-S/K^d, T2, and T2-K^d were used as targets. Synthetic peptides or peptide library mixes were used at concentrations indicated in the figures, and 1.6×10^9 NIT-1 cell equivalents of peptide were used for HPLC fraction screening assays.
Cytotoxicity Assay. AI4 CTL were generated by culturing splenocytes from NOD.AI4αβ Tg mice with IFN-γ-treated NIT-1β cells (Hamaguchi et al., 1991) and IL-2 as described (DiLorenzo et al., 2002). CTL were used in 16 h ^51Cr-release cytotoxicity assays to test for recognition of peptide-pulsed target cells at an effector to target ratio of 40:1 as described (DiLorenzo et al., 2002). TAP-deficient RMA-S cells (Kerre et al., 1986) were used as targets.

Sequence | EC50
YAIENYLEL [MimA2, YAIENYLEL] | 0.01 nM

same assay, conditions: RMA-S targets, peptide 0.1 nM to 1 μM (FIG. 11A)

Sequence | AI4 CTL response to natural peptides with AI4-preferred motif
DMHENYMEM [DM9, natural peptide of X-linked lymphocyte regulated complex] | nonreacting
RTSENYLEL [RLL9, natural peptide of MKIAA1569 protein] | nonreacting
QYLENYLWM (listed as Mus musculus) [QM9, natural peptide of aquarius] | more weakly
TNKENYTEL [TL9, natural peptide of stromal cell derived factor receptor 1] | nonreacting
EVVESYMYL [EL9, natural peptide, similar to 1,2-α-mannosidase IC] | nonreacting
VMLENYTHL (listed as Mus musculus) [VML9, natural peptide, similar to KRAB zinc finger protein] | more weakly
RLFENYIEL (listed as Mus musculus) [RIL9, natural peptide of exocyst complex component Sec5] | more weakly
FQDENYLYL (listed as Mus musculus) [FNL9, natural peptide of DMK and MRCKβ] | mirroring that obtained with the Mim peptide
HEAESYML [HL9, natural peptide of calcitonin receptor precursor] | nonreacting
VTLENYTHL [VTL9, natural peptide of hypothetical protein] | nonreacting
FTDESYLEL [FSL9, natural peptide of polymyositis/scleroderma autoantigen 2] | nonreacting

same assay, conditions: mimotope and alanine-substituted peptides, varying concentrations, E:T ratio of 40

Sequence | AI4 cytotoxic response towards peptide-pulsed RMA-S target cells
YFIENALEL [A6] | significantly lower responses
YFIANYLEL [A4] | significantly lower responses
YFIENYAEL [A7] | decreased
YFIENYLEL [Mim, YFIENYLEL] | best response
YFIENYLAL [A8] | decreased
YAIENYLEL [MimA2, YAIENYLEL] | strongest AI4 CTL response of all of the peptides

test system: T cells cultured from NOD islets; experiment: IFN-γ ELISPOT of T cells cultured from NOD islets with peptide-pulsed APC; assay type: cell-based, mouse; settings: 1 μM peptide, T cells from pooled islets of 11-week-old NOD mice, 40 h
Protocol: ELISPOT assay. ELISPOT plates (MAHA S45 10; Millipore, Billerica, Mass.) were precoated with anti-murine IFN-γ Ab (R4-6A2; BD Biosciences Pharmingen, San Diego, Calif.) and blocked with 1% BSA (Fraction V, Sigma-Aldrich, St. Louis, Mo.) in PBS. APC (Mitomycin C-treated NOD splenocytes) were added at 2×10^4 cells/well and pulsed for 1 h with 1 μM of each peptide (MimA2, NRP-V7, INS-19, INS BC, GAD65206, GAD65546). Cultured islet T cells were added at 2×10^4 cells/well and plates were incubated at 37° C. for 40 h. IFN-γ secretion was detected with a second, biotinylated anti-murine IFN-γ Ab (XMG1.2; BD Biosciences Pharmingen, San Diego, Calif.). Spots were developed using streptavidin-alkaline phosphatase (Zymed Laboratories, Inc., South San Francisco, Calif.) and 5-bromo-4-chloro-3-indolyl-phosphate/nitroblue tetrazolium chloride substrate (Sigma-Aldrich, St. Louis, Mo.).
IFN-γ ELISPOT. ELISPOT plates (MAHA S45 10; Millipore) were coated with anti-murine IFN-γ Ab (R4-6A2; BD Biosciences Pharmingen) and blocked with 1% BSA (Sigma-Aldrich) in PBS. APC (Mitomycin C-treated NOD splenocytes) were added at 2×10^4 cells/well and pulsed with 1 μM peptide. Cultured islet T cells were added at 2×10^4 cells/well and plates were incubated at 37° C. for 40 h. Secreted IFN-γ was detected with a second, biotinylated anti-murine IFN-γ Ab (XMG1.2; BD Biosciences Pharmingen). Spots were developed using streptavidin-alkaline phosphatase (Zymed Laboratories) and 5-bromo-4-chloro-3-indolyl-phosphate/nitroblue tetrazolium chloride substrate (Sigma-Aldrich). For all incubation steps, plate bottoms were covered with aluminum foil to distribute heat uniformly across the plate as described (Kalyuzhny and Stark, 2001).

Sequence | IFN-γ spots in response to peptide
KYNKANVFL (peptide NRP-V7) [mimotope peptide recognized by 8.3-like T cells] | detectable
SYQPLGDKV (listed as Mus musculus) [GAD65546, murine GAD65 546-554 peptide] | unable to detect responses
TYEIAPVFV (listed as Mus musculus) [GAD65206, murine glutamic acid decarboxylase 65 206-214] | unable to detect responses
FQDENYLYL (listed as Mus musculus) [FNL9, natural peptide of DMK and MRCKβ] | recognized by a detectable population of T cells
LYLVCGERL (listed as Mus musculus) [INS-L9, G9L variant of murine insulin B15-23] | detectable
FYTPMSRREV (listed as Mus musculus) [INS BC, murine insulin 2 B25-C34] | No spots were detected

molecular target: T1, H-2K^d (Mus musculus, UniProt P01902); experiment: not given; settings: cited from earlier work
T1 sequence (P01902 22-368): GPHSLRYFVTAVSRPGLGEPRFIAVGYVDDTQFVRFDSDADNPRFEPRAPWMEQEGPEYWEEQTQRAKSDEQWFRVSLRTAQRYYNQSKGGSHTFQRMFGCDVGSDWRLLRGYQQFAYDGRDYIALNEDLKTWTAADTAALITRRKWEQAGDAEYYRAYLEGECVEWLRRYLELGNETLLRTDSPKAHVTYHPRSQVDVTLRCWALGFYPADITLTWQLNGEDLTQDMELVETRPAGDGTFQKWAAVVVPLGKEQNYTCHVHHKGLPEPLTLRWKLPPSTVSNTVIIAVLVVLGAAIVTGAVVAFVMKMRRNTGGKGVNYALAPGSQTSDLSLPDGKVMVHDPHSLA
T1 sequence (P01887 21-119 partner): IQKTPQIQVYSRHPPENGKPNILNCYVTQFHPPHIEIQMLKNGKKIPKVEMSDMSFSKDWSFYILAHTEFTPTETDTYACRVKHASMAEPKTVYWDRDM

Sequence | binding to H-2K^d relative to insulin B15-23
LYLVCGERI (listed as Mouse sp.) [INS-I9, G9I variant of murine insulin B15-23] | more stable binding
LYLVCGERL (listed as Mus musculus) [INS-L9, G9L variant of murine insulin B15-23] | more stable binding

From patent publication US8318670B2, “Antigens targeted by pathogenic AI4 T cells in type 1 diabetes and uses thereof” (Albert Einstein College of Medicine of Yeshiva University, priority 2004, dated 2012)
